Assay results from ChEMBL document CHEMBL1201862, “PubChem BioAssay data set” (2004).
Active and inactive are the calls of the source.

Experiments:
[1] = HepG2 cell cytotoxicity, dose response, cytotoxicity control for Shn3 inhibitor project, CellTiter-Glo, cherry-picked (AID 624134); format: functional, cell-based
[2] = Shn3 3'UTR reporter inhibitors, dose response, cell-based, Clone20 osteoblasts, firefly luciferase, cherry-picked (AID 624132); format: functional;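 further: firefly luciferase luminescence from reporter carrying the Shn3 3'UTR in osteoblasts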
cells [3] = format: functional, cell-based
[4] = target: T1, Type-1 angiotensin II receptor (Homo sapiens, UniProt P30556); test: AT1 receptor antagonists, dose response, selectivity assay for APJ receptor antagonist project, cell-based, uHTS hits (AID 463214); format: functional;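 further: antagonist potency against angiotensin II stimulated AT1 response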
T1 sequence (P30556 whole entry): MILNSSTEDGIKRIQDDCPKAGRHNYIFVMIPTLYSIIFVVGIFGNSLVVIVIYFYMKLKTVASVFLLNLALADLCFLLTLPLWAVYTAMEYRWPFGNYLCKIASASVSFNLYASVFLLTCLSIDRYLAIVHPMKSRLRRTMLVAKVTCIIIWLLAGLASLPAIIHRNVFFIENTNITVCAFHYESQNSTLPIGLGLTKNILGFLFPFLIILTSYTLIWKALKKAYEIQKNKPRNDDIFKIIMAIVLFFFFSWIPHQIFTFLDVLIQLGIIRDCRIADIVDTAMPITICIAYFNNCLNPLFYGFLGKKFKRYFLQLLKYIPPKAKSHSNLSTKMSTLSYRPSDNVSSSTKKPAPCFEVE

cells [5] = format: functional, cell-based; remark: listed apart in the source
[6] = target: Neurotensin receptor type 1 (Homo sapiens, UniProt P30989); format: functional;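 further: Image-based confirmatory dose-response assay measuring agonist activity at NTR1; NTR1-expressing U2OS osteosarcoma cells imaged for beta-arrestin GFP spot formation; agonist potency where compounds increase beta-arrestin recruitment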
[7] = control 3'UTR Renilla luciferase suppression, dose response, counter-screen for Shn3 inhibitor project, cell-based, Clone20-Shn3RL, cherry-picked (AID 624133); format: functional
[8] = target: T2, Heat shock factor protein 1 (Mus musculus, UniProt P38532); test: inhibition of MG132-induced HSE-luciferase signal, confirmation, cell-based, NIH3T3, luminescence, dose retest (AID 2382); format: functional;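 further: NIH3T3 fibroblasts with HSF1-driven luciferase reporter stressed by proteasome inhibitor MG132; luminescence from HSF1-driven luciferase expression after 8 hours of MG132 stress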
T2 sequence (P38532 whole entry): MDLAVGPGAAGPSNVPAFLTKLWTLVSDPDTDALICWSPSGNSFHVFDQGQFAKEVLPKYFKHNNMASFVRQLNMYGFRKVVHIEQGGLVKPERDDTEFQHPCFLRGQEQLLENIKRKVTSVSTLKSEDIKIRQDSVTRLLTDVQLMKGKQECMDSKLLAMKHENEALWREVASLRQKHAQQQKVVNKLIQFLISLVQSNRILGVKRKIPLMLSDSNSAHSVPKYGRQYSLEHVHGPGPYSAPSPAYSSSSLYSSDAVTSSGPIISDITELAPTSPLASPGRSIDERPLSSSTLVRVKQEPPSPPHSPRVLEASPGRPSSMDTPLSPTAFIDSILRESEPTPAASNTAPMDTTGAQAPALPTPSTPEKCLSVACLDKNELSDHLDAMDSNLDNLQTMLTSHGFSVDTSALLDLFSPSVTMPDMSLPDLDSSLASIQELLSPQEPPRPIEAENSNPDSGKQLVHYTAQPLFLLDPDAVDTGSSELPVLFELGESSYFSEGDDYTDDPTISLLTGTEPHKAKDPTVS

Beta-galactosidase = Beta-galactosidase (Escherichia coli, UniProt Q8VNN2); test: PubChem AID 485352; format: functional
[9] = target: Metabotropic glutamate receptor 4 (Homo sapiens, UniProt Q14833); test: Modulation of the Metabotropic Glutamate Receptor mGluR4: Potency at human mGluR4. Modulation of intracellular Ca2+ using Fluo-4, AM, in CHO expressing recombinant receptor [Related pubchem assays (depositor defined):AID2437, AID2807]; format: functional, cell-based
[10] = target: T3, Sentrin-specific protease 8 (Homo sapiens, UniProt Q96LD8); format: functional;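 further: luminescence read-out of SENP8 inhibition, dose-response confirmation following an ultra-high-throughput screen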
T3 sequence (Q96LD8 whole entry): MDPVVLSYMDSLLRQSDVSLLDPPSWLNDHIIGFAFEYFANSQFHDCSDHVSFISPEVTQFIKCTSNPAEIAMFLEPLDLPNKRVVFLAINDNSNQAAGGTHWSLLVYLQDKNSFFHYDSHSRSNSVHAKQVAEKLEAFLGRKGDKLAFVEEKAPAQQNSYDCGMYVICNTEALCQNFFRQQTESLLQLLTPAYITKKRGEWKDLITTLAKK

[11] = target: T4, Sentrin-specific protease 7 (Homo sapiens, UniProt Q9BQF6); format: functional;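 further: Luminescence-based dose-response confirmation of ultra-high-throughput screening hits, measuring inhibition of SENP7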
T4 sequence (Q9BQF6 whole entry): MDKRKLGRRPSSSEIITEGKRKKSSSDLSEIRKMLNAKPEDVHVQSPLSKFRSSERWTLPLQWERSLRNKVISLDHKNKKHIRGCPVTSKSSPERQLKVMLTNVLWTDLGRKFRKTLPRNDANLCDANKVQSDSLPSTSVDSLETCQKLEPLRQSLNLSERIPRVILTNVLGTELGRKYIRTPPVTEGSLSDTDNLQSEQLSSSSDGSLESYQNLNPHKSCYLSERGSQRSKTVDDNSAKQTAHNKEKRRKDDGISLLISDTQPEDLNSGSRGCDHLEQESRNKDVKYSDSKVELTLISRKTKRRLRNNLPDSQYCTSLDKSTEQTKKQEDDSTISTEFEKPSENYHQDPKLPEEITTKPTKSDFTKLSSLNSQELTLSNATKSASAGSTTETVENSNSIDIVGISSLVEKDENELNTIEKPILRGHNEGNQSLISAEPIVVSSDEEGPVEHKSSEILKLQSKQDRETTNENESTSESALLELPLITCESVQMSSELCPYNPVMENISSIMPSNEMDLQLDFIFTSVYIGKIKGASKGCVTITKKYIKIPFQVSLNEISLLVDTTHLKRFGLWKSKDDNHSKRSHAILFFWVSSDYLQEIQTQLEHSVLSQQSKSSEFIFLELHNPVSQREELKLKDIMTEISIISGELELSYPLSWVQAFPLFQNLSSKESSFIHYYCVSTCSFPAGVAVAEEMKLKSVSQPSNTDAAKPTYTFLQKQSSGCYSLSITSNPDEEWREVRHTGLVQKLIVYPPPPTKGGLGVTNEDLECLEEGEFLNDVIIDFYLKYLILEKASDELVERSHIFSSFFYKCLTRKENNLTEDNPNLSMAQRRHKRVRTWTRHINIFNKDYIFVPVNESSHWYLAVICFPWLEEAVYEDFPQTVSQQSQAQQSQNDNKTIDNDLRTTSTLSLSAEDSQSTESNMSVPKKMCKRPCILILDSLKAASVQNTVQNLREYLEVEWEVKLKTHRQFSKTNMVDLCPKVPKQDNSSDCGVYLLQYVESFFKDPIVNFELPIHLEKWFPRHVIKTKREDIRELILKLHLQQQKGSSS

Caspase-3 = target: T5, Caspase-3 (Homo sapiens, UniProt P42574); format: functional;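 further: Dose-response selectivity test against caspase-3 for candidate inhibitors of sentrin-specific proteases (SENPs)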
T5 sequence (P42574 whole entry): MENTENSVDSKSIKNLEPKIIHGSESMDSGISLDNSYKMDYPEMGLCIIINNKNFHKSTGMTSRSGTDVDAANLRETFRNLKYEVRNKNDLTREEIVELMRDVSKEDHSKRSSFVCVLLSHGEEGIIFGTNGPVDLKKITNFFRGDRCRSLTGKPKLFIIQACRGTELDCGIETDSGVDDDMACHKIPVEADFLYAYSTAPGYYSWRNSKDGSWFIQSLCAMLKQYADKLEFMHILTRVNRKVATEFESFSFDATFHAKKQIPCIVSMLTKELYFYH

Protein skinhead-1 = target: T6, Protein skinhead-1 (Caenorhabditis elegans, UniProt P34707); format: functional
T6 sequence (P34707 whole entry): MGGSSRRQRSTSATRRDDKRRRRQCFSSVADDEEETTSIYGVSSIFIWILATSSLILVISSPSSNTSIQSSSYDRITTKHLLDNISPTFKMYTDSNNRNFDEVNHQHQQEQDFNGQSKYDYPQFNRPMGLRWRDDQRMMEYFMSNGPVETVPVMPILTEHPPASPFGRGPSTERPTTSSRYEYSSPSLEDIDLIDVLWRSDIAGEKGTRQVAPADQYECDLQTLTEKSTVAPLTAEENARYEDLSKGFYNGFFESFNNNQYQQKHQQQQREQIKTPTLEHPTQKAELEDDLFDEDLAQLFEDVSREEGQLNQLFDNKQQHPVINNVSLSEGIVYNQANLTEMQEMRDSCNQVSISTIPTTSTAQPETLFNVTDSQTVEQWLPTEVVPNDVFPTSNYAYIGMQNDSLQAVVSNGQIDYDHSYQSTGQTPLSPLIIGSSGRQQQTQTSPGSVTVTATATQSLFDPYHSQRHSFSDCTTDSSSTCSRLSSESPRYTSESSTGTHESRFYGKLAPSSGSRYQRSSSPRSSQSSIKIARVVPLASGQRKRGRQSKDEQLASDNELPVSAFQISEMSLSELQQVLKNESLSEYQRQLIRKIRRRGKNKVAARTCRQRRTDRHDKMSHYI

[12] = target: T7, Sentrin-specific protease 6 (Homo sapiens, UniProt Q9GZR1); format: functional;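 further: Luminescence-based dose-response confirmatory assay of SENP6 inhibition, following up an ultra-high-throughput screen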
T7 sequence (Q9GZR1 whole entry): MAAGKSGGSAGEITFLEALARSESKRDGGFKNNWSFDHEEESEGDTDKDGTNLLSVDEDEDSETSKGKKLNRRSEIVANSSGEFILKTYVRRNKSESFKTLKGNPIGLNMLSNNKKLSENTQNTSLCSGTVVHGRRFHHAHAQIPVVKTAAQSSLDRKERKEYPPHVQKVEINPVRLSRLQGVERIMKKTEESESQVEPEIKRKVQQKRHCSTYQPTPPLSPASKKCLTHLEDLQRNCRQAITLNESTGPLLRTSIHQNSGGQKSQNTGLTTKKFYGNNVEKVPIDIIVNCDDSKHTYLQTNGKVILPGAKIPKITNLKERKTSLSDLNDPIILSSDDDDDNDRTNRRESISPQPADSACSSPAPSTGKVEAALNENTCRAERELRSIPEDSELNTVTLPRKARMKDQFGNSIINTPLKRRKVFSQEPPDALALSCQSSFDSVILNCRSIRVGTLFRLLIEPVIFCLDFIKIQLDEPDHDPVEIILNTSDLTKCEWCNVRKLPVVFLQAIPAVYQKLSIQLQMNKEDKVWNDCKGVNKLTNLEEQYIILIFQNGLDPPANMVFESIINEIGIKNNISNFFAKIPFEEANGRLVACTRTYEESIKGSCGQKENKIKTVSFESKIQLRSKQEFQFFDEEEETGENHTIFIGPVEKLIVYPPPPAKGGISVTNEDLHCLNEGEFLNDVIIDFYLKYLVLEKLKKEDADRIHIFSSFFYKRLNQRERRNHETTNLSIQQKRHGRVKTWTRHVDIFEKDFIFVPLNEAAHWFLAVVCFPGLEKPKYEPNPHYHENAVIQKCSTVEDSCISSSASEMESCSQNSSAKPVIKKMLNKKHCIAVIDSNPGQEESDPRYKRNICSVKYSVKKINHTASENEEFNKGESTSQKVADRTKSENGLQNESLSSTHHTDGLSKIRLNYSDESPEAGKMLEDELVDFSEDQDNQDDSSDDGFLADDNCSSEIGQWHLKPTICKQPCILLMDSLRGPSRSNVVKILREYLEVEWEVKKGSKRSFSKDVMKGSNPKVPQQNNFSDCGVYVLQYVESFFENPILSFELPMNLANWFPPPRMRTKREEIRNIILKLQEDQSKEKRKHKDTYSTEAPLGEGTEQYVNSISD

[13] = target: Metabotropic glutamate receptor 4 (Rattus norvegicus, UniProt P31423); test: Modulation of the Metabotropic Glutamate Receptor mGluR4: Rat PAM Potency. [Related pubchem assays (depositor defined):AID2437, AID2807]; format: functional
Chain of Metabotropic glutamate receptor 4 (Rattus norvegicus, UniProt P31423) (P31423 whole entry): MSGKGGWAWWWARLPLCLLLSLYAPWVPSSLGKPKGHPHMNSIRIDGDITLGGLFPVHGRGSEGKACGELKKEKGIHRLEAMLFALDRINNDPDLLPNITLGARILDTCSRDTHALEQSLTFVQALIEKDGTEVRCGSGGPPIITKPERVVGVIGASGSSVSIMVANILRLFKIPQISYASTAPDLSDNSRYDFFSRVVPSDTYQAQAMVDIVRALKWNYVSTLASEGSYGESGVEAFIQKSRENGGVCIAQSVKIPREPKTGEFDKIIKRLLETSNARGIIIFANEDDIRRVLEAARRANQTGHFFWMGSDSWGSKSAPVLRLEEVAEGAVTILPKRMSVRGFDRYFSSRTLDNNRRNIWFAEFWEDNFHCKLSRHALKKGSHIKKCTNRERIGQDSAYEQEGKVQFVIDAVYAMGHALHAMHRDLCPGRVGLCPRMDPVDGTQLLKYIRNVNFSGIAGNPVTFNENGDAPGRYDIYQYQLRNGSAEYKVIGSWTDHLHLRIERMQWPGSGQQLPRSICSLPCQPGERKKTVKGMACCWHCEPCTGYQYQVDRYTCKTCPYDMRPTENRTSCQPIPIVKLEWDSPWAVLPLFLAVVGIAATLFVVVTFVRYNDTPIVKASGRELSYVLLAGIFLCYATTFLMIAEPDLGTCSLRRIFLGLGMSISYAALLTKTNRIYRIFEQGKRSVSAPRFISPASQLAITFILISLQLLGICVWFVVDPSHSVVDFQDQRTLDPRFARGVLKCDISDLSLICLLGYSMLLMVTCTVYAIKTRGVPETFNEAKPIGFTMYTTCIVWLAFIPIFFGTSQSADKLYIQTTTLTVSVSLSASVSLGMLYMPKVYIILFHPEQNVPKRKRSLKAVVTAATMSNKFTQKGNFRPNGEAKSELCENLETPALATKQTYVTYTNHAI

Chain of Neurotensin receptor type 1 (P30989 whole entry): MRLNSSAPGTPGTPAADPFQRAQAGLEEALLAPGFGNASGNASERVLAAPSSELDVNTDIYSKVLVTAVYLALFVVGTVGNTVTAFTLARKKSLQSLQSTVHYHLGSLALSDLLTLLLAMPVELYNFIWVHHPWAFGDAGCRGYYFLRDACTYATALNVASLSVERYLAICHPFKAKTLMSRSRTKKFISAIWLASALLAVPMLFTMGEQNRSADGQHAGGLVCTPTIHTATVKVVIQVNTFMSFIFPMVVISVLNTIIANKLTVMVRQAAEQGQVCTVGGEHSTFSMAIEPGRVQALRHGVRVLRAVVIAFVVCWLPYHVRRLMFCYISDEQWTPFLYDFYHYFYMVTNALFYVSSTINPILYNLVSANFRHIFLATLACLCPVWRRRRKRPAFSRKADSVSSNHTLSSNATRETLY
Chain of Beta-galactosidase (Q8VNN2 whole entry): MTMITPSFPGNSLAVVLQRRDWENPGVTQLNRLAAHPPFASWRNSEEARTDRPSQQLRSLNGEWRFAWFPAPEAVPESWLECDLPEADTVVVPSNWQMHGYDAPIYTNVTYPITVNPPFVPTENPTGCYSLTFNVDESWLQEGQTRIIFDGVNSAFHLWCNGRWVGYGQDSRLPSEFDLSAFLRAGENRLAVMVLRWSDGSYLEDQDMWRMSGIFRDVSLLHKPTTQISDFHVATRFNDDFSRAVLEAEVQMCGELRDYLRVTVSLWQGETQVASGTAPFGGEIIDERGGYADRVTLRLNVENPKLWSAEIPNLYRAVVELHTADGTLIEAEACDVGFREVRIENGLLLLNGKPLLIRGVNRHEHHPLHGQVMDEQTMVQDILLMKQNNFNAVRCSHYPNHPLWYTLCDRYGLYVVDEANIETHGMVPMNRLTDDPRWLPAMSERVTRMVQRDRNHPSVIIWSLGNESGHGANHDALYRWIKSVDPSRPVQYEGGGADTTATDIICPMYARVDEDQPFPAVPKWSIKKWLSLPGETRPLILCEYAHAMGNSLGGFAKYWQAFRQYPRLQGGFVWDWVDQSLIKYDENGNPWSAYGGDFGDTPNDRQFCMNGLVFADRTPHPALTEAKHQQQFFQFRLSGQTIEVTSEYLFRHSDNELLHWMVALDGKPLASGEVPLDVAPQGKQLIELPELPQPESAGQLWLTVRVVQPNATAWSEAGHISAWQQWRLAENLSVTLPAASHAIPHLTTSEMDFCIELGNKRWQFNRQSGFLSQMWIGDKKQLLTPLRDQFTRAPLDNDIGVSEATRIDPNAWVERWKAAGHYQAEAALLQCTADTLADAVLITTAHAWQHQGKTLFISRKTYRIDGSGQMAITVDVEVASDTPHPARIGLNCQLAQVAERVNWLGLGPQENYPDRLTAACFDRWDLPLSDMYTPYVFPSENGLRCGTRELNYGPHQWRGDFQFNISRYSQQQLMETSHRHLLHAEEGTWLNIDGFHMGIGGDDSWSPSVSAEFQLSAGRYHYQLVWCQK
Chain of Metabotropic glutamate receptor 4 (Homo sapiens, UniProt Q14833) (Q14833 whole entry): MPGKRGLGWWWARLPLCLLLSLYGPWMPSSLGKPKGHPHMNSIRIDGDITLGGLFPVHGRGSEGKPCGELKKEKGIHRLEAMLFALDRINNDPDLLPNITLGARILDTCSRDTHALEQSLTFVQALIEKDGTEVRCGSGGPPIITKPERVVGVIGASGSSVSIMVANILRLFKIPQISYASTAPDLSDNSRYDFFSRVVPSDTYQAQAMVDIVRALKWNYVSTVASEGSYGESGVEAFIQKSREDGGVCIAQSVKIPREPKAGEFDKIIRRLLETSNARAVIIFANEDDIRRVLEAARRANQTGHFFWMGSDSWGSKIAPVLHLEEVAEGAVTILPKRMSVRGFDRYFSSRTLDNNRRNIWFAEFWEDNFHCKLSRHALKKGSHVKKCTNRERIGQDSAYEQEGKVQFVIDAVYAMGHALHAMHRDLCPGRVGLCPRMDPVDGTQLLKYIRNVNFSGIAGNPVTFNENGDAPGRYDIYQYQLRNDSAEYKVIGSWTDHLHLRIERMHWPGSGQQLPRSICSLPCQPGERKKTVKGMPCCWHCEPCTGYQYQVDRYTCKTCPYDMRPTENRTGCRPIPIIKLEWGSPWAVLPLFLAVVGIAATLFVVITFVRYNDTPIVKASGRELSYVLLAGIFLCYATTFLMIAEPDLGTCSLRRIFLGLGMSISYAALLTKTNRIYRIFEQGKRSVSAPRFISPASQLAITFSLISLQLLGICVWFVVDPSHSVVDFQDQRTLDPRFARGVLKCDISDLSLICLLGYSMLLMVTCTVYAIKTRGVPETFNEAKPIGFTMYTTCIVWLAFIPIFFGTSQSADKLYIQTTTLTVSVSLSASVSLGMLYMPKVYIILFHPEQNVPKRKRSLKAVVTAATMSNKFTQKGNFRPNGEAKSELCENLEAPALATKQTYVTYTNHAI

SMILES | AC50 [1] | AC50 [2] | EC50 (cells [3]) | IC50 [4] | EC50 (cells [5]) | EC50 [6] | AC50 [7] | EC50 [8] | EC50 (Beta-galactosidase) | EC50 [9] | IC50 [10] | IC50 [11] | IC50 (Caspase-3) | IC50 (Protein skinhead-1) | IC50 [12] | EC50 [13]
CC(=O)OCCCNc1cc(Sc2ccc(C)cc2)c2nonc2c1[N+](=O)[O-] | > 70 µM (inactive) | 1.1 µM (active) | > 350 µM (not active) | 1.56 µM (active) | > 350 µM (not active) | 5.83 µM (active) | 12.4 µM (active) | > 195 µM (not active) | > 40 µM (inactive) |  |  |  |  |  |  | 
O=C(Nc1ccc(Cl)c(Cl)c1)c1ccco1 |  |  |  |  |  |  |  |  |  | 4.54 µM (active) | 21.7 µM (active) | 5.24 µM (active) | 17 µM (active) | 24.4 µM (active) | 18.3 µM (active) | 3.58 µM (active)
